Laboratory results as given in patent publication US10604739B2, “Cardiomyocyte production” (Cellular Dynamics International, Inc., priority 2009, dated 2020).
Several values for one entry are separate records, joined by “and”; a condition that tells them apart may be missing. Equal entries are not always repeated.

Legend:
[1] = tested on: iPS6.1 cells; experiment: iPS6.1 Four Corners experiment, FGF x HGF cardiac induction; type: cell-based, human
Procedure: (§1) Aggregate formation and cardiac induction procedures of those iPS cells at different initial densities were performed essentially the same as described in Examples 4 except different concentrations of human HGF (hHGF) and FGF were applied to Aggregate Formation Medium, Aggregate Transition Medium and Cardiac Induction Medium.
Concurrent with the second iPS growth factor titration, a simple experiment (Table 19) was set up with iPS6.1 cells to test the 2×2 matrix of 0 and 25 ng/mL FGF and 0 and 50 ng/mL HGF. The positive concentrations of FGF and HGF were chosen based on the current best practices for iPS6.1 cells at the time and were identical to the conditions used for cardiac induction of H1 cells in both the plated and suspension processes. This experiment confirmed previous work showing the necessity of FGF for the process.

[2] = tested on: iPS6.1 cells; experiment: iPS6.1 Growth Factor Titration #2; type: cell-based, human; settings: HGF 0, 20, 50 ng/mL, best performing FGF concentration conditions
Procedure: as §1
Based on the results of the first experiment (see FIGS. 29A-B), the second iPS6.1 growth factor titration focused on the lower dose range for both FGF and HGF (FIGS. 30A-B). […] However, it is important to note that in no case did the omission of HGF lead to the failure of a condition which was otherwise successful in the presence of HGF.

## HGF: human recombinant HGF (hepatic growth factor), R&D systems
[1]; iPS6.1 cells, 25 ng/mL FGF and/or 50 ng/mL HGF, single T25 flask, day 14
  input iPS:CM: 6725
[1]; iPS6.1 cells, 25 ng/mL FGF and/or 50 ng/mL HGF, single T25 flask, day 14, listed as HGF only
  % cTNT+: 0% and 1.5% and 7%
[1]; inclusion of HGF (50 ng/mL) together with FGF (25 ng/mL) versus FGF alone
  Overall culture efficiency: reduced overall culture efficiency
[2]
  Trend of productivity with HGF concentration: productivity increased with higher HGF concentrations
